Measured values: patent US20060052455A1, “Composition for preventing treating the xepression of clinical symptom in disease caused by mitochondrial dysfunction” (priority 2002, published 2006)

System: MELAS patients
Assay: Intravenous drip infusion of L-arginine monohydrochloride to MELAS patients
Type: in vivo, human
Source text: This treatment by intravenous injection is, however, not convenient for MELAS patients, because, in order to receive intravenous injection in the acute stage of cerebral apoplexy-like episode, they have to go to the hospital to receive such intravenous injection immediately after the episode has occurred. […] The scintillating scotoma refers to an abnormal visual field which is one of warning symptoms of a cerebral apoplexy-like episode, and when it occurs, a riffle-like light suddenly appears in a part of the visual field and usually lasts for 5 to 30 minutes. Moreover, administration of a large amount of L-arginine monohydrochloride into a blood vessel may presumably cause side effects such as drop in blood pressure, hydrochloric acidosis, or the like.

SMILES: Cl.N=C(N)NCCC[C@H](N)C(=O)O [L-arginine monohydrochloride]
- treatment of the acute stage of cerebral apoplexy-like episode due to MELAS (intravenous drip infusion, three patients): effective
- improvement of warning symptoms of the episode, particularly scintillating scotoma (intravenous injection): cannot improve
